Results from patent US20150265614A1, “ORAL PREPARATION AND METHOD FOR PRODUCING THE SAME” (CHUNG-ANG UNIVERSITY INDUSTRY-ACADEMY COOPERATION FOUNDATION, priority 2012, published 2015).

Assay: laser scattering particle size analysis of naproxen crystal particles
Type: physicochemical
Conditions: HORIBA LA-910 laser scattering particle size analyzer
Source text: The sizes of the crystal particles of naproxen prepared in Examples 6 and 7 and Comparative Example 2 were observed. Specifically, the degree of dispersion of the particle sizes of a nonsteroidal anti-inflammatory drug (NSAID) agent naproxen ((+)-(S)-2-(6-methoxynaphthalen-2-yl)propanoic acid) was observed by using HORIBA LA-910 LASER SCATTERING PARTICLE SIZE ANALYZER. The observation results are each illustrated in FIGS. 16 to 18.

average particle diameter / average crystal size of naproxen: 9.5 μm
SMILES: COc1ccc2cc([C@H](C)C(=O)O)ccc2c1 [Comparative Example 2, (+)-(s)-2-(6-methoxynaphthalen-2-yl)propanoic acid]
